Reference: ChEMBL document CHEMBL1136912, “Synthesis and in vivo influenza virus-inhibitory effect of ester prodrug of 4-guanidino-7-O-methyl-Neu5Ac2en” (Bioorg Med Chem Lett, 2009)

Test: Inhibition of Tamiflu-resistant Influenza A virus (A/Yokohama/67/2006 (H1N1)) sialidase

Row | Structure (SMILES) | IC50
1 | CO[C@@H]([C@@H]1OC(C(=O)O)=C[C@H](NC(=N)N)[C@H]1NC(C)=O)[C@H](O)CO [LANINAMIVIR] | 5.62 nM
2 | CC(=O)N[C@H]1[C@H]([C@H](O)[C@H](O)CO)OC(C(=O)O)=C[C@@H]1NC(=N)N [ZANAMIVIR] | 3.05 nM
